Counter-ions that a name gives are not always drawn.

In turn, `Cc1onc(-c2ccc(-c3cscn3)cc2)c1-c1ccc(S(C)(=O)=O)c(F)c1` [Example 168, 4-[3-Fluoro-4-(methylsulfonyl)phenyl]-5-methyl-3-[4-(1,3-thiazol-4-yl)phenyl]isoxazole] gave a melting point of 130 °C. In the case of `Cc1cc(-n2c(C)ccc2-c2ccc(S(C)(=O)=O)cc2)ccc1-c1ccoc1` [Example 39, 1-[4-(3-Furyl)-3-methylphenyl]-2-methyl-5-[4-(methylsulfonyl)phenyl]-1H-pyrrole], the melting point lay in the range of 69 to 75 °C. `Cc1ccc(-c2ccc(S(C)(=O)=O)c(F)c2)n1-c1ccc(-c2ccco2)cc1` [Example 35, 5-[3-Fluoro-4-(methylsulfonyl)phenyl]-1-[4-(2-furyl)phenyl]-2-methyl-1H-pyrrole] had a melting point of 179 to 182 °C. The value for `Cc1cc(-c2cc(C(F)(F)F)nn2-c2ccc(S(C)(=O)=O)cc2)ccc1-c1cocn1` (as salt: hydrochloride) [Example 112, 4-{2-Methyl-4-[1-[4-(methylsulfonyl)phenyl]-3-(trifluoromethyl)-1H-pyrazol-5-yl]phenyl}-1,3-oxazole] was 148 to 150 °C; that for `Cc1onc(-c2ccc(S(C)(=O)=O)cc2)c1-c1ccc(-c2cscn2)cc1` [Example 189, 5-Methyl-3-[4-(methylsulfonyl)phenyl]-4-[4-(1,3-thiazol-4-yl)phenyl]isoxazole] was 159 °C. Turning to `Cc1ccc(-c2ccc(S(C)(=O)=O)cc2)n1-c1ccc(-c2nccs2)cc1` [Example 49, 2-Methyl-5-[4-(methylsulfonyl)phenyl]-1-[4-(2-thiazolyl)phenyl]-1H-pyrrole], the melting point is 190 to 191 °C.

Take `Cc1noc(-c2ccc(S(C)(=O)=O)cc2)c1-c1ccc(-c2cscn2)cc1` [Example 191, 3-Methyl-5-[4-(methylsulfonyl)phenyl]-4-[4-(1,3-thiazol-4-yl)phenyl]isoxazole]: the melting point is 119 °C. Consider `Cc1nc(-c2ccc(-c3ccco3)cc2)c(-c2ccc(S(C)(=O)=O)cc2)o1` [Example 51, 4-[4-(2-Furyl)phenyl]-2-methyl-5-[4-(methylsulfonyl)phenyl]oxazole], for which the melting point is 143 to 144 °C. For the compound `Cc1nc(-c2ccc(S(N)(=O)=O)c(F)c2)c(-c2ccc(-c3cscn3)cc2)o1` [Example 193, 2-fluoro-4-[2-methyl-5-[4-(1,3-thiazol-4-yl)phenyl]-1,3-oxazol-4-yl]benzenesulfonamide], the melting point was in the range of 192 to 194 °C.

With `Cc1cc(-c2ccco2)ccc1-c1cc(C(F)(F)F)nn1-c1ccc(S(C)(=O)=O)cc1` (as salt: hydrochloride) [Example 78, 1-[4-(Methylsulfonyl)phenyl]-5-[4-(2-furyl)-2-methylphenyl]-3-(trifluoromethyl)-1H-pyrazole], the melting point lay within 175 to 177 °C. Turning to `Cc1ccc(-c2ccc(S(C)(=O)=O)c(F)c2)n1-c1ccc(-c2cscn2)cc1` [Example 151, 5-[3-Fluoro-4-(methylsulfonyl)phenyl]-2-methyl-1-[4-(4-thiazolyl)phenyl]-1H-pyrrole], the melting point came out at 215 °C. The compound `CS(=O)(=O)c1ccc(-n2nc(C(F)(F)F)cc2-c2ccc(-c3ccco3)c(Cl)c2)cc1` (as salt: hydrochloride) [Example 71, 1-[4-(Methylsulfonyl)phenyl]-5-[3-chloro-4-(2-furyl)phenyl]-3-(trifluoromethyl)-1H-pyrazole] had a melting point of 143 to 145 °C. In turn, `CC(=O)Nc1cnn(-c2ccc(S(C)(=O)=O)c(F)c2)c1-c1ccc(-c2cscn2)cc1` [Example 164, N-[1-[3-Fluoro-4-(methylsulfonyl)phenyl]-5-[4-(1,3-thiazol-4-yl)phenyl]-1H-pyrazol-4-yl]acetamide] came in with a melting point of 225.2 °C. The compound `Cc1cc(C2=C(c3ccc(S(C)(=O)=O)cc3)C(C)(C)OC2=O)ccc1-c1cscn1` [Example 184, 5,5-Dimethyl-3-[3-methyl-4-(1,3-thiazol-4-yl)phenyl]-4-[4-(methylsulfonyl)phenyl]-2(5H)-furanone] returned a melting point of 180.3 °C.

Usually melting point stands for the temperature of the solid-liquid transition.

These data come from US6949536B2, “Sulfonylbenzene compounds as anti-inflammatory/analgesic agents” (Pfizer, Inc., priority 1998, dated 2005).
